Molecules are shown by their SMILES. Read-outs that look alike come from different tables or passages of the source.

These results are taken from paper PMC9995496, “A screen for MeCP2-TBL1 interaction inhibitors using a luminescence-based assay” (Scientific Reports, 2023).

Experiment [1] addresses T1, MeCP2-TBL1 interaction (MeCP2-SmBiT / TBL1-LgBiT) (Mus musculus, UniProt Q9QXE7).
T1 construct: expressed in transfected cells; crude lysate used as a cell-free assay
T1 sequence (Q9QXE7 166-527): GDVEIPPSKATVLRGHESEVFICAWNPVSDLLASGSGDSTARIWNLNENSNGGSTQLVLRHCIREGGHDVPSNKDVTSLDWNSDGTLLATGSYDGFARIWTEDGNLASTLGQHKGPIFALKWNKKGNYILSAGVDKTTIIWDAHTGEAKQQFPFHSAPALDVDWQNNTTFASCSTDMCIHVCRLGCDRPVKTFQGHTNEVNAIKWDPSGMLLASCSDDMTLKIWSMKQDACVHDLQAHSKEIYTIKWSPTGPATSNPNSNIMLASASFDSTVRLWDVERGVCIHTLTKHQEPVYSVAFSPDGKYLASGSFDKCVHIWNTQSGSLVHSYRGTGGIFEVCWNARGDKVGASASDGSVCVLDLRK
The experiment can be described thus: MeCP2-TBL1 NanoLuc luciferase complementation assay (cell-free, extracts of transfected HEK293 cells). As to conditions: for Inh (MeCP2-TBL1): ApexBio FDA-approved Drug Library screen, 20 µM. The class given is binding, human. In a few lines:
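Cell-free split NanoLuc: lysate of HEK293 cells co-expressing the MeCP2 C-terminal half-SmBiT and TBL1 WD domain-LgBiT, mixed 1:1 with furimazine. After 30 min at room temperature, luminescence was plate-median normalized.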

Experiment [2] has as its system PRKACA-PRKAR2A interaction (SmBiT-PRKACA / LgBiT-PRKAR2A), protein kinase A. In words: PKA-based NanoLuc complementation control assay (counter-screen). It counts as binding, human. Further details: Inh (PKA): unit not given here. Particulars: 20 µM; for Inh (PKA): ApexBio FDA-approved Drug Library screen. The text has this: To distinguish such false positives from genuine inhibitors of the interaction between MeCP2 and TBL1/TBLR1, a control screen is essential, utilising the same NanoLuc SmBiT and LgBiT fragments, but with an unrelated protein interaction pair. The interaction between PRKACA and PRKAR2A, which are the catalytic and regulatory subunits of human protein kinase A (PKA) respectively, has previously been measured using a NanoLuc complementation assay. We tested this pair of interacting proteins for activity in a NanoLuc complementation assay under our conditions. […] We therefore selected the PKA-based NanoLuc complementation as a suitable control assay. The effects of the four compounds identified from the Asinex library were assessed in the control PKA-based NanoLuc assay.
The AgeI-NotI restriction fragment (encoding EGFP) was then replaced with a codon optimized SmBiT sequence to yield the MeCP2-SmBiT expression plasmid. […]
In the screens described here, the lysate obtained from a single 15 cm plate was used for 2.5 384-well assay plates. […] After 30 min incubation at room temperature, luminescence was measured on a Tecan M1000 multi-mode plate reader. Raw luminescence reads from each well on each plate were normalized to the median luminescence signal for that plate. […] After plate normalization the robust SSMD (SSMD*) was calculated as described elsewhere. […]
Assays were performed as described above except instead of a single concentration, a threefold serial dilution ranging from 60 to 0.03 μM was tested in triplicate for each of the compounds. Half-maximal inhibitory concentrations were calculated using global nonlinear regression by fitting the response data sets of all compounds simultaneously with a four-parameter logistic curve of log inhibitor concentration versus normalized luminescence using GraphPad Prism. […] The luminescence signal of each compound concentration was normalized by dividing the luminescence signal of the DMSO control.
On the technique in general: Counterscreens check selectivity or assay interference.

Experiment [3] shares this test system. Further details: NanoLuc complementation counter-screen in cell extract, PRKACA with PRKAR2A, loss of luminescence, detects NanoLuc interference. As to conditions: counter-screen for NanoLuc interference; 0.5 h, 20 µM; inhibitor. The protocol: In the screens described here, the lysate obtained from a single 15 cm plate was used for 2.5 384-well assay plates. NanoLuc substrate (furimazine) (Promega, N1110) was diluted 1000-fold in passive lysis buffer (Promega, E1941) and added 1:1 to the lysate. Screening libraries were purchased from Asinex[40] and ApexBio (FDA-approved Drug Library, L1021). Compounds were dispensed using an Echo acoustic dispenser and tested at a final concentration of 20 µM in a total assay volume of 20 μl in 384-well plate format. DMSO was added to each well at a final concentration of 0.2% (v/v) and wells containing only DMSO were used as negative control. After 30 min incubation at room temperature, luminescence was measured on a Tecan M1000 multi-mode plate reader. Raw luminescence reads from each well on each plate were normalized to the median luminescence signal for that plate. […] After plate normalization the robust SSMD (SSMD*) was calculated as described elsewhere. […] The interaction between PRKACA and PRKAR2A, which are the catalytic and regulatory subunits of human protein kinase A (PKA) respectively, has previously been measured using a NanoLuc complementation assay. […] The effects of the four compounds identified from the Asinex library were assessed in the control PKA-based NanoLuc assay. […]

Where [4] appears, read: primary screen of the Asinex library, sheet "Sargen output Asinex library", one well per compound.
Where [5] appears, read: primary screen of the Asinex library, sheet "Sargen output Asinex library", one well per compound, Batch Ref. 1.
The mark [6] stands for this setting: primary screen of Asinex library, single well per compound.

Consider `C[C@H]1CC[C@H]2[C@H](O1)c1cc(OCC(=O)NCc3ccccc3)ccc1OC2(C)C` [BDG 34039627], for which, in experiment [1] (0.3–60 μM), the “extent of MeCP2-TBL1 inhibition reached within the tested concentration range” value is reported as “able to return the luminesce signal back to baseline”. Also, the “separation between MeCP2-TBL1 inhibition and inhibition of the PKA control in dose response” value in experiment [1] (0.3–60 μM, PKA-based assay run in parallel) was “clear separation”. The IC50 – broadly, the concentration that inhibits the measured activity by half – in experiment [1] (dose response 0.3–60 μM, triplicate, 30 min, luminescence normalized to DMSO, read-out: IC50, inhibition of MeCP2-TBL1 luminescence signal) turned out to be 18 µM. The “effect on luminescence in PKA control assay” value in experiment [2] (n = 3) is reported as “did not cause a reduction in luminescence”.

For `COc1ccc(/C(Cl)=C(/C=O)c2ccc(OC)cc2)cc1` [Windorphen, reference compound], in experiment [1], the “Inh (MeCP2-TBL1)” value stood at 12.6933. For the same molecule, in experiment [2], the “Inh (PKA)” value is reported as 33.916.

Regarding `C=C1C(=O)O[C@@H]2[C@H]3O[C@]3(C)CC/C=C(\C)CC[C@@H]12` [UM0142841:01, Parthenolide], the “Inh (PKA)” value in experiment [3] is 0.7412%.

With `Oc1ccc(Nc2nc(-c3ccc(Cl)cc3)cs2)cc1` [SKI II, reference compound], the “Inh (MeCP2-TBL1)” value in experiment [1] is recorded as 10.5772. Further, in experiment [2], the “Inh (PKA)” value was 14.6502.

As to `COc1ccccc1Cc1ccc(C(=O)N2CCCC2c2cncc(-c3nc(C)c[nH]3)n2)cn1` (centres unmarked) [BDH_33521296], in experiment [1] (setting [4]), the Inhibition percent was -4.74%.

`O=C1CCCC[C@]2(CN(Cc3ccccc3OCc3ccccn3)C[C@H]2c2ccc(F)cc2)N1` [BDH_32358404]: the Inhibition percent in experiment [1] (setting [4]) stood at 1.07%.

Turning to `Cn1c(=O)n(C)c2cc(CCC(=O)N3CCCCC3CCNC(=O)c3ccccc3)ccc21` (centres unmarked) [BDH_33628839], the Inhibition percent in experiment [1] (setting [5]) was -0.76%.

With `COc1ccc(C2(C(=O)N3CCC(Cc4cccc5cccnc45)CC3)CCOCC2)cc1` [BDH_32344076], the Inhibition percent in experiment [1] (setting [4]) is listed as 3.92%.

For the molecule `O=C(c1ccccc1CN1CCCC1)N1CCC2(CC1)COC(Cc1cccc(F)c1)C2` (centres unmarked) [BDH_32342523], in experiment [1] (setting [4]), the Inhibition percent came out at 5.16%.

With `COc1ccccc1-c1cccc(CN2C[C@@H](c3cc(F)cc(F)c3)[C@@]3(CCCCC(=O)N3)C2)c1` [BDD_23570836], in experiment [1] (setting [5]), the Inhibition percent is on record as 1.23%.

Consider `C[C@]12C[C@@H](Cc3ccccc3)N(C(=O)c3ccc(OCCN4CCCC4)cc3)[C@H]1CCCC(=O)N2` [BDH_33629575], for which the Inhibition percent in experiment [1] (setting [5]) is -1.81%.

With `Nc1ncc(-c2cccc(C(F)(F)F)c2)c(C2CCCCN2C(=O)CCN2C(=O)CCNC2=O)n1` (centres unmarked) [BDH_33628597], the Inhibition percent in experiment [1] (setting [5]) was determined as 2.35%.

With `Cc1nccn1Cc1ccccc1C(=O)N1CCCC(c2cncc(Oc3ccccc3)n2)C1` (centres unmarked) [BDH_32364323], the Inhibition percent in experiment [1] (setting [4]) is on record as -2.15%.

As to `O=C1CCCC[C@]2(CN(Cc3ccc(-c4ccccc4)cc3)C[C@H]2c2cc(F)cc(F)c2)N1` [BDD_20406167], the Inhibition percent in experiment [1] (setting [5]) is on record as 4.82%.

As for `CN(Cc1ccccc1)[C@@H]1[C@@H](O)[C@H](Oc2ccccc2F)C[C@H]1NC(=O)CC(C)(C)CC(=O)O` [BDG_34135529], in experiment [1] (setting [6]), the Inhibition percent is 1.25.

Take `COc1ccccc1Cc1ccc(C(=O)N2CCCC2c2cncc(-c3nccn3C)n2)cn1` (centres unmarked) [BDH_33521295]: in experiment [1] (setting [5]), the Inhibition percent is reported as -3.44%.

For `CC(=O)N[C@@]12CCN(CCOc3ccc(F)cc3)C[C@@H]1[C@@H](c1ccccc1)N(C(C)=O)C2` [BDG_30283198], the Inhibition percent in experiment [1] (setting [4]) is reported as -0.86%.

Consider `O=C1OC2(CCCN(C(=O)c3ccc(-n4cccn4)nc3)CC2)CN1Cc1ccccc1` (centres unmarked) [BDH_32330719], for which, in experiment [1] (setting [4]), the Inhibition percent was -2.98%.

In the case of `COc1ccc(C2(C(=O)N3CCCC(Cc4cccc5ccncc45)CC3)CCOCC2)cc1` (centres unmarked) [BDH_32359024], in experiment [1] (setting [4]), the Inhibition percent came to 2.06%.

Take `O=C(c1cc(-c2ccccc2F)n[nH]1)N1CCCCC1c1ncc(Cc2ccccc2)o1` (centres unmarked) [BDE_33513466]: the Inhibition percent in experiment [1] (setting [5]) is listed as 6.68%.

On to `COc1cccc2c1OC(C)(C)[C@H]1C[C@@H]3[C@H](CCN3CC(=O)O)O[C@H]21` [BDG_34128979], for which the Inhibition percent in experiment [1] (setting [6]) is on record as -2.31.

Regarding `CC(=O)N[C@@H]1C[C@@H](C(=O)N(C)C)N(CC(=O)Nc2ccc3[nH]c(=O)[nH]c3c2)[C@H]1c1ccccc1` [BDH_33615574], the Inhibition percent in experiment [1] (setting [4]) is reported as -1.45%.

Take `CC(=O)N[C@@]12CCN(CC(=O)Nc3cccc(F)c3)C[C@@H]1[C@@H](c1ccccc1)N(C(C)=O)C2` [BDH_33625995]: the Inhibition percent in experiment [1] (setting [5]) is on record as -1.85%.

As for `O=C(CN1CCC(C2CCCCN2C(=O)C2CCN(Cc3ccccn3)CC2)CC1)N1CCCC1` (centres unmarked) [BDE_33629903], the Inhibition percent in experiment [1] (setting [5]) is -3.25%.
